Laboratory results published in patent publication US12465614B2, “Budesonide 21-phosphate salts and pharmaceutical compositions containing the same” (GENETIC S.P.A., priority 2020, dated 2025).

Legend:
[1] = system: mice with OVA-induced allergic asthma; assay: Lung hyperreactivity/Penh function, intra-nasal Bud vs Bud-21 P (Experimental Groups III); assay type: in vivo; details: for Penh maximal response (Emax) / area under the Penh-metacholine concentration curve (AUC): 4 weeks
Protocol: Male Balb/c SPF mice (25*2 g, 6-week-old) were purchased from the animal house facilities at the São Paulo School of Medicine (Federal University of São Paulo, Brazil). They were group-housed in a temperature-controlled room at 22° C. with a 12/12-hour light/dark cycle and allowed free access to food and water. The study is in agreement with the Ethical Principles for Animal Research established by the Brazilian College for Animal Experimentation (COBEA). According to the internal laboratory rules, euthanasia is performed if severe distress related to the test agents developed during the experiment. In Protocol 3, the test compounds budesonide (Bud; MW: 430.53 g/mol) and budesonide 21-phosphate free acid (Bud-21 P; […] The compounds were dissolved in 10% sterile saline+90% DMSO (Sigma Chemical Co., St. Louis, MO) at the correspondent concentrations at which the above mentioned doses per animal result from the intra-nasal (i.n.) administration of 10 μl/animal (5 μl/nostril) of each of the solutions. Mice were sensitized with two subcutaneous injections of 0.4 ml of OVA/Al(OH)3, with an interval of 7 days (Sham animals received the Al(OH)3 suspension in PBS with no OVA). Seven days after the second sensitization (i.e., 3rd week), the animals were nebulized twice a week with the 1% OVA solution (Sham and untreated OVA groups were nebulized with PBS) during 20 minutes for the next 2 weeks. Sixty minutes before the challenges (OVA nebulization) and daily during the next 4 weeks, mice were intra-nasally treated (10 μl/animal as 5 μl/nostril) with the respective compounds/vehicle. Airway responsiveness in conscious, spontaneously breathing animals was measured at the end of the 4th week (i.e., after 2 weeks of OVA challenges+treatments), 24 h after the last OVA/PBS challenge via whole body plethysmography (Buxco Europe Ltd, Winchester, UK), as previously described. Experiments were carried out in a quiet room by an investigator who was unaware of the nature of treatments. Aerosolized saline (50 μl/mouse during 60 s) and then the muscarinic agonist metacholine (MCh) at increasing concentrations (3.12, 6.25, 12.5 and 25.0 mg/ml in PBS) was nebulized through an inlet of the main chamber for 3 min each to induce bronchoconstriction and readings were taken and averaged for 6 min following each nebulization. After 20 min, the baseline values usually returned at the end of this period. Enhanced pause (Penh) was measured as an indicator of bronchoconstriction and consequent increase of airway resistances: Penh=[(expiration time/relaxation time)−1][…](maximum expiration flow/maximum inspiration flow)

[2] = system: compound 48/80 (C48/80)-induced skin edema in mice; assay: Cutaneous edema: C48/80-induced plasma extravasation, Evans blue method (Experimental Groups IV); assay type: in vivo; details: for C48/80-induced edema: 0.70 μmol/kg i.p. (0.30 mg/kg Bud, 0.36 mg/kg Bud 21-P); for reduction of C48/80-induced plasma extravasation: 2.32 μmol/kg i.p. (1.0 mg/kg Bud, 1.2 mg/kg Bud 21-P), 60 min before i.d. C48/80
Protocol: Male C57Bl/6 SPF mice (25±2 g, 6-week-old) were purchased from the animal house facilities at the São Paulo School of Medicine (Federal University of São Paulo, Brazil). They were group-housed in a temperature-controlled room at 22° C. with a 12/12-hour light/dark cycle, had free access to food and water and were allowed to acclimate to our local facility for one week before the start of the experimental procedures. The study agrees with the Ethical Principles for Animal Research established by the Brazilian College for Animal Experimentation (COBEA). According to the internal laboratory rules, euthanasia is performed if severe distress related to the test agents developed during the experiment.
In Protocol 4, Bud (at doses of 1.0 and 0.30 mg/kg) and Bud 21-P (at doses of 1.2 and 0.36 mg/kg) were administered on a molar base, these doses were equivalent to […] μmol/kg of each compound, respectively. The vehicle for dissolution of the compounds was sterile saline solution (0.9% NaCl) containing 12.5% DMSO (Sigma Chemical Co., St. Louis, MO). The compound solutions were prepared at concentrations such that the administered dose per kg of body weight results from the intraperitoneal (i.p.) administration of 10 ml/kg of each of the solutions.
Skin edema was assessed in mice according to the method previously described by Costa et al. (2006) and Yshii et al (2009). The mice were anesthetized with urethane (25% w/v, 10 ml/kg, i.p.), had their dorsal skin shaved, and thereafter i.p. treated with the vehicle/test compounds. Fifty-five minutes later, a volume of 100 μL of Evans blue dye solution (0.25% in sterile saline) was intravenously (i.v.) injected via the tail vein. Five minutes later, the BK and C48/80 were intradermally (i.d.) injected into the dorsal skin at a fixed volume of 50 μl using a randomized scheme. The same volume of Tyrode solution 50 μl was injected as a control. Thirty minutes later, a 1 ml blood sample was obtained via cardiac puncture and the mice were killed by urethane overdose followed by cervical dislocation. The blood samples were centrifuged at 6,000 g for 4 min to obtain the plasma. […] The dye was extracted from each piece of skin and plasma (100 μl) samples using formamide, and the absorbance of the resulting solutions was measured at 620 nm. The plasma extravasation due to each agent (expressed in μl/site) was calculated as the ratio between the absorbance of each respective skin piece, corrected by the blank value and plasma sample solutions, properly adjusted by the dilution factors. To homogenate data due to the variability of different group of animals (inter-group variations), edema data are expressed as the fold-change response relative to the mean Tyrode (control) response of each experiment.

[3] = highest dose 30 nmol/animal/day i.n.
[4] = all tested doses (3, 10 and 30 nmol/animal/day) i.n.

SMILES | beneficial effect on bronchoconstriction response to methacholine (Penh function) ([1]; 3 and 10 nmol/animal/day i.n.) | Penh maximal response (Emax) [1, 3] | area under the Penh-metacholine concentration curve (AUC) [1, 3] | C48/80-induced edema [2] | reduction of C48/80-induced plasma extravasation [2] | Penh maximal response (Emax) [1, 4] | area under the Penh-metacholine concentration curve (AUC) [1, 4]
CCCC1OC2CC3C4CCC5=CC(=O)C=CC5(C)C4C(O)CC3(C)C2(C(=O)CO)O1 (stereo not drawn) [Bud, 11β,21-dihydroxy-16α,17α-(butylidenebis(oxy))pregna-1,4-diene-3.20-dione] | absent | significant reduction of this response just at the highest dose | significant reduction of this response just at the highest dose | ineffective | approximately 50% |  | 
CCCC1OC2CC3C4CCC5=CC(=O)C=CC5(C)C4C(O)CC3(C)C2(C(=O)COP(=O)(O)O)O1 (stereo not drawn) [B, Budesonide 21-phosphate] |  |  |  | significantly inhibited C48180-induced edema | approximately 50% | significantly reduced | significantly reduced
